What was measured:
[1] = species on record: Homo sapiens; assay: Inhibition of P-gp in human KBv200 cells assessed as potentiation of vincristine-induced cytotoxicity by measuring reduction in vincristine IC50 at 25 uM after 96 hrs by […] relative to vincristine alone; format: cell-based
[2] = target: ATP-dependent translocase ABCB1 (Homo sapiens, UniProt P08183); assay: Inhibition of MDR1 (unknown origin) expressed in MDCK-MDR1 cells assessed as increase in Rh123 accumulation at 100 uM after 30 mins by spectrofluorometric analysis relative to control; format: cell-based; details: mdck-mdr1, 0.5 h
ATP-dependent translocase ABCB1, sequence (P08183 whole entry): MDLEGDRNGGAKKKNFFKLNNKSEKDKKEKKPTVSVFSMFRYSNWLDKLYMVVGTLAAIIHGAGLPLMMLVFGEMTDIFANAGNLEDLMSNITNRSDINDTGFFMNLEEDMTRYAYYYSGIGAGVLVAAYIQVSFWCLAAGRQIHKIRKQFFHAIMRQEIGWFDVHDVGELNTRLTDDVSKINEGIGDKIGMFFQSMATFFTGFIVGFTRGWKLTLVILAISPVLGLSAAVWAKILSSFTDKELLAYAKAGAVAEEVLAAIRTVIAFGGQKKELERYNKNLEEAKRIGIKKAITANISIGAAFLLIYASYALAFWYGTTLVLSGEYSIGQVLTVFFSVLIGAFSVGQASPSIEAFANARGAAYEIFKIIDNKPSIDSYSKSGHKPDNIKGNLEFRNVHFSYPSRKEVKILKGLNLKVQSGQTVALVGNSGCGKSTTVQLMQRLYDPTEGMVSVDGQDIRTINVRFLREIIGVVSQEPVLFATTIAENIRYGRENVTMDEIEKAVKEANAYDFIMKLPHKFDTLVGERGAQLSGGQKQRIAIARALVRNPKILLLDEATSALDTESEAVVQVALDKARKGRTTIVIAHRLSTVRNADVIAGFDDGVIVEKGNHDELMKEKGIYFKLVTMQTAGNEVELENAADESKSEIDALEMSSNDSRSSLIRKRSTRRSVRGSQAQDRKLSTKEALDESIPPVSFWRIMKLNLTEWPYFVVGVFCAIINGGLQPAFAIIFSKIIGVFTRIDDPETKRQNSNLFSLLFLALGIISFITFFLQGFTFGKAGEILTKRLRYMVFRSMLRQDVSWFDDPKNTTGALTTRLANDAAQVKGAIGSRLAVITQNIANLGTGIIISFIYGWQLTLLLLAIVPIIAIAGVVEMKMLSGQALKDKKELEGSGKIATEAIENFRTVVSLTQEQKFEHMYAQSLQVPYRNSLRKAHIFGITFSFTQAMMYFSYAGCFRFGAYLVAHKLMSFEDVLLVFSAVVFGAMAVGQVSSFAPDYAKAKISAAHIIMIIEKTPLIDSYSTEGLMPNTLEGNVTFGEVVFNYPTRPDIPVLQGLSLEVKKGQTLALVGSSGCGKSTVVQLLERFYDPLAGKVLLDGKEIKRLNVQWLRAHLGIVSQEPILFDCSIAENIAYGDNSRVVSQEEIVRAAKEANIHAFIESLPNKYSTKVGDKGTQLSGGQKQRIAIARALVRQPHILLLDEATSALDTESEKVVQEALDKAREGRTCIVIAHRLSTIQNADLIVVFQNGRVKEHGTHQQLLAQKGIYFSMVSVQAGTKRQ

| fold change (FC) [2] | SMILES | Ratio IC50 [1] |
| --- | --- | --- |
| – | COc1cc2c(c(OC)c1OC)-c1c(cc(OC)c(OC)c1OC)C[C@](C)(O)[C@@H](C)C2 | 3.8 |
| – | COc1cc2c(c(OC)c1OC)-c1c(cc3c(c1OC)OCO3)CC(C)C(C)C2 (centres undefined) | 23.5 |
| 9 | CC(C)C(=O)OC(C)(C)[C@@H]1Cc2c(ccc3ccc(=O)oc23)O1 | – |
| – | COc1cc2c(c(OC)c1OC)-c1c(cc(OC)c(OC)c1OC)C[C@H](C)[C@H](C)C2 | 309 |
